Tests used:
[1] = tested on: Arabidopsis, tomato, and wheat roots; assay: LC-MS comparative metabolomics of ascr #18-treated plant roots; type: in vivo
Procedure: Plant tissues were immediately frozen in liquid nitrogen and ground to a fine powder and extracted with 350 μL mixture of water/methanol/chloroform (1:2:1) for 12 hours at 4° C., with shaking at 220 rpm. The extracts were dried in vacuo, resuspended in 100-200 μL of 80% methanol and analyzed by LC/MS. For root tissues, seedlings were extensively washed three times with the excess amount of distilled water and dried on filter paper. The root tissues from 40 seedlings were pooled in one tube and then similarly extracted. Mixed stage C. elegans culture extract was prepared as described (Panda, et al. (2017) Angew Chem. Int. Ed. Engl. 56(17): 4729-4733).
High resolution LC-MS analysis was performed on a Dionex™ 3000 UPLC system coupled with a Thermo Q Exactive™ high-resolution mass spectrometer as described (Artyukhin, et al. (2018) J. Am. Chem. Soc. 140 (8): 2841-2852; Panda, et al. (2017) Angew Chem. Int. Ed. Engl. 56 (17): 4729-4733). Metabolite extracts were separated using water-acetonitrile gradient using Agilent ZORBOX Eclispse XDB-C18 rapid resolution column (2.1 mm×150 mm, particle size 1.8-micron) maintained at 40° C. Solvent A: 0.1% formic acid in water; Solvent B: 0.1% formic acid in acetonitrile. […] Ascarosides were detected in negative ionization mode as [M-H]— and MS/MS spectra and retention times confirmed by comparison with known standards. […]

[2] = tested on: Arabidopsis wildtype and ibr10, ech2, ech2ibr10, or acx1acx5 mutants; type: in vivo, Arabidopsis thaliana; conditions: for ascaroside levels in ascr #18-treated acx1acx5 mutant compared with wildtype: roots treated with 1 μM ascr #18
Procedure: FIG. 3A provides a comparison of peroxisomal β-oxidation (pβo) pathways and associated enzymes involved in the conversion of indole-3-butyric acid (IBA)-to-indole acetic acid (IAA) in Arabidopsis and ascaroside biosynthesis in C. elegans. FIG. 3B provides LC-MS analysis of Arabidopsis seedlings treated with 1 μM ascr #18 for 24 hours before sample extraction, comparing ascr #9 production in wildtype and ibr10, ech2, ech2ibr10, or acx1acx5 mutants. FIG. 3C provides a comparison of ascaroside abundances in Arabidopsis wildtype and acx1acx5 roots treated with 1 μM ascr #18. Data are averages±SEM (n=5); n.d.=not detected. FIG. 3D provides RNAseq analysis of ten day-old Arabidopsis wildtype and acx1acx5 mutant roots, plotted as transcript abundance. Data are averages±s.d (n=6).
Arabidopsis thaliana mutant genotypes in the Col-0 background, ibr10-1, ech2-1, ibr10-1ech2-1, and acx1-2acx5-1, were obtained from Rice University (Houston, TX) (Strader, et al. (2011) Plant Cell 23:984-999; Adham, et al. (2005) Plant J. 41:859-874).
To test whether ascr #18 is metabolized via pβo in plants, Arabidopsis mutants impaired in key enzymes of this pathway were analyzed (FIG. 3B). […] In contrast, two other putative po genes, ibr10 and ech2, a putative enoyl-CoA hydratases (Strader, et al. (2011) Plant Cell 23:984-999; Adham, et al. (2005) Plant J. 41:859-874; Zolman, et al. (2008) Genetics 180(1): 237-51), are not required for ascr #18 metabolism in Arabidopsis. ACXs participate in the […] step of pβo by introducing α,β-unsaturation in the side-chain (Von Reuss, et al. (2012) J. Am. Chem. Soc. 134:1817-1824; Strader, et al. (2011) Plant Cell 23:984-999). […] These observations indicate that ascr #18 metabolism in plants into shorter-chained ascarosides proceeds via pβo, and that ACX1 and/or ACX5 are strictly required for chain shortening of ascr #10, whereas the first chain-shortening step from ascr #18 to ascr #10 may involve additional acyl-CoA oxidases.

SMILES	uptake and metabolism of ascr #18 in roots ([1]; roots soaked 24 hours in ascr #18 solution, monocots and dicots)	metabolism of ascr #18 into shorter-chained ascarosides ([2]; acx1acx5 mutant, 1 μM ascr #18, 24 hours)	requirement of ibr10 and ech2 for ascr #18 metabolism ([2]; ibr10, ech2 mutants, 1 μM ascr #18, 24 hours)	ascaroside levels in ascr #18-treated acx1acx5 mutant compared with wildtype [2]	abundance among ascr #18-derived metabolites in roots (LC-MS peak area) ([1]; all three plant species, ascr #18 root treatment 24 hours)
CC1O[C@@H](O[C@@H](C)CCCCCCCCC(=O)O)C(O)C[C@H]1O (stereo in doubt) [ascr #18, (10R)-(3′R,5′R-dihydroxy-6′S-methyl-(2H)-tetrahydropyran-2-yloxy)-undecanoic acid]	taken up and subsequently metabolized into ascarosides with shorter fatty-acid side chains	dramatically reduced	not required	elevated levels	
C[C@H](CCC(=O)O)O[C@@H]1O[C@@H](C)[C@H](O)C[C@H]1O [ascr #9]				not detected	most abundant differential metabolite
